Measured values reported in patent US7282340B2, “Methods for identifying an analog that promotes nerve regeneration” (Oregon Health Sciences University, priority 1997, dated 2007).
Where “and” joins values, the source holds several entries; their conditions need not be identical. Equal entries are not always repeated. Marks after values point to notes of the source that are not given here.

Legend:
[1] = system: rat sciatic nerve; details: cited from earlier work
[2] = system: SH-SY5Y human neuroblastoma cells; experiment: Neurite outgrowth (neurite length) in NGF-treated SH-SY5Y cells; assay type: cell-based; details: for Mean neurite length: mean ± SEM
Experimental: Cell cultures. SH-SY5Y human neuroblastoma cells were maintained in DMEM medium (GIBCO) supplemented with 10% fetal calf serum (SIGMA), 50 IU>mL penicillin, and […] streptomycin (GIBCO) at 37° C. in 7% CO^2. Cells were plated in six-well plates at 1×10^6 cells/well and treated with […] aphidicolin (SIGMA). At five days, cells were washed, treated with nerve growth factor (NGF) (Boehringer Mannheim, Indianapolis, Ind.) at 10 ng/mL (to induce process outgrowth) in the presence or absence of V-10,367 (1, 10, or 100 nM) (Armistead et al., Acta Cryst., D51:522-528, 1995; FIG. 1). Media was changed at 96 hours and replaced with fresh media with or without the compounds (NGF and V-10,367) for an additional 72 hours (total time, 168 hours). All experiments were run in duplicate wells and repeated at least twice for reproducibility.
Light morphometry of neurite lengths. […] Neurite lengths were measured on photographic prints using a Houston Instrument HI-PAD digitizing tablet connected to an IBM XT computer with appropriate software (Bioquant IV, R&M Biometrics, Nashville, Tenn.); only those processes greater than two times the cell body length were measured. Data from identically treated wells were not different and were therefore combined. […] Histograms were compared using a Mann-Whitney U test, which makes no assumptions about the shape of the distribution.

[3] = Single-dose pharmacokinetics in the rat; assay type: in vivo, Sprague-Dawley rat
Experimental: Pharmacokinetics of V-10,367. To determine the appropriate daily dose of V-10,367 for administration to rats, single-dose pharmacokinetics of V-10,367 were evaluated in the rat following intravenous and subcutaneous dosing. […] Since these concentrations were sufficiently above the 10 nM concentration needed to cause neurite extension in vitro, a subcutaneous dose of 200 mg/kg twice daily was selected for subsequent experiments.

[4] = system: rat sciatic nerve; experiment: Functional recovery after sciatic nerve crush; assay type: in vivo, Sprague-Dawley rats
Experimental: (§1) Animals and surgical procedure. Ten six-week-old Sprague-Dawley rats were anesthetized with 2% halothane, the right sciatic nerve exposed, and the nerve crushed twice (for a total of 30 sec using a No. 7 Dumont jeweler's forceps) at the level of the hip. The crush site was marked by tying a sterile 9-0 suture through the perineurial sheath.
(§2) Preparation and administration of V-10,367. V-10,367-HCl (molecular weight, 639.18) was dissolved in vehicle comprising 40% propylene glycol:10% ethanol:50% water. Fresh solutions were prepared at the time of each injection. Three rats received subcutaneous injections (200 mg/kg) every 12 hours (beginning immediately after the nerve crush; totaling 400 mg/kg/day) in the back of the neck using a 25 g needle. Control animals (n=3) received injections every 12 hours of vehicle only. An additional control group (n=3) received daily injections of saline. Animals were weighed daily and the weights plotted over the 18-day period of the study.
Two separate additional studies were performed. In the first study, three axotomized rats received a single daily subcutaneous injection (200 mg/kg) as above. In the second study, V-10,367 was delivered as to axotomized rats as a continuous infusion. Osmotic pumps (Alza, Palo Alto, Calif.) model 2ML2 filled with V-10,367-HCl (200 mg/ml) or vehicle (two per group) were implanted under the skin on the left side of the animal.
Behavioral assessment. Functional recovery was assessed in FK506-treated animals used for morphological study only. Animals were examined blindly by two investigators daily until the day of perfusion (18 days). […] To obtain records during walking, the hind feet were marked with tempera paint and the animals allowed to freely walk across a sheet of paper between 14-18 days. Toe spread during walking was defined as the distance between the first and fifth digits, measured to the nearest 0.5 mm; three foot prints were analyzed from each animal. This analysis represents a reliable and reproducible index of functional recovery which, unlike the sciatic nerve function index, is not influenced by how fast the animal walks (Walker et al., Restor. Neurol. Neurosci. 6:189-193, 1994).

[5] = system: soleus nerve; experiment: Electron microscopic morphometry of axonal areas in soleus nerve after sciatic nerve crush; assay type: in vivo, Sprague-Dawley rats
Experimental: as §1
as §2, with “Animals were weighed daily and the weights plotted over the 18-day period of the study.” left out
Electron microscopic analysis of axons. […] Axonal areas of both myelinated and unmyelinated fibers were determined by tracing the axolemma using a Houston Instrument HI-PAD digitizing tablet connected to an IBM XT computer with appropriate software (Bioquant IV, R&M biometrics, Nashville, Tenn.). […] For each group (i.e., 400 and 200 mg/kg/day V-10,367-treated and vehicle-treated), mean values and standard areas were calculated for the whole population of axons. […]

[6] = rat, in vivo, sc, 400 mg/kg/day
Experimental: as §2

[7] = target: FKBP-12 (Homo sapiens, UniProt P62942); experiment: FKBP-12 inhibition; assay type: biochemical
Source text: Assays for inhibition of FKBP-12 rotamase activity are described in Harding et al. (Nature 341:758-760, 1989), Siekierka et al., Nature 341:755-757, 1989, and U.S. Pat. No. 5,654,332, for example. Chymotrypsin is able to cleave p-nitroanilide from the trans form of the artificial substrate N-succinyl-Ala-Ala-Pro-Phe-p-nitroanilide, but not from the cis form. The assays of Harding et al. and Siekierka et al. employ a reaction mixture that includes the cis form of N-succinyl-Ala-Ala-Pro-Phe-p-nitroanilide, FKBP-12, a test compound, and chymotrypsin, and spectrophotometrically measure the release of p-nitroanilide as a result of isomerization of the substrate.

[8] = single intravenous dose 17.7 mg/kg
[9] = subcutaneous injection 174 mg/kg
[10] = continuous infusion 18 days via osmotic minipump

Chain of FKBP-12 (P62942 whole entry, species assumed): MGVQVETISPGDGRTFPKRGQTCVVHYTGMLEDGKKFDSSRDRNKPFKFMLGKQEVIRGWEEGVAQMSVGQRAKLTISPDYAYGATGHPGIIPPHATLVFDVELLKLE

Compound: CC[C@@H]1/C=C(\C)[C@@H](O)[C@H](C)C[C@H](OC)[C@H]2O[C@@](O)(C(=O)C(=O)N3CCCC[C@H]3C(=O)O[C@H](/C(C)=C/[C@@H]3CC[C@@H](O)[C@H](OC)C3)[C@H](C)[C@@H](O)CC1=O)[C@H](C)C[C@@H]2OC [L-685,818, 18-OH, 21-ethyl-FK506]
- Functional recovery ([1]; topical administration to the nerve crush site): accelerate functional recovery

Compound: COc1cc(C(=O)C(=O)N2CCCC[C@H]2C(=O)OC(CCCc2ccccc2)CCCc2cccnc2)cc(OC)c1OC.Cl (some centres unmarked) [V-10,367]
- Mean neurite length ([2]; 1 nM V-10,367 + NGF 10 ng/mL, 96 h): 110 ± 2.2 μm
- Mean neurite length ([2]; 1 nM V-10,367 + NGF 10 ng/mL, 168 h): 136 ± 5.8*^,Δ μm
- Mean neurite length ([2]; 10 nM V-10,367 + NGF 10 ng/mL, 96 h): 138 ± 9.4 μm
- Mean neurite length ([2]; 10 nM V-10,367 + NGF 10 ng/mL, 168 h): 148 ± 8.6*^,††,Δ μm
- Mean neurite length ([2]; 100 nM V-10,367 + NGF 10 ng/mL, 96 h): 121 ± 6.0 μm
- Mean neurite length ([2]; 100 nM V-10,367 + NGF 10 ng/mL, 168 h): 118 ± 4.2*^,† μm
- Number of processes per cell or branching of cell processes ([2]; 1-100 nM with NGF 10 ng/mL): No change
- Concentration of maximal effect on neurite length ([2]; tested at 1, 10, 100 nM with NGF 10 ng/mL): 10 nM
- Average blood clearance [3, 8]: 84 mL/min/kg
- Elimination half-life [3, 8]: about 1.3 hours
- Volume of distribution at steady state [3, 8]: 2.76 L/kg
- Average Cmax [3, 9]: 171 ng/mL
- Cmax [3, 9]: 285 nM
- Trough concentrations at 8 hours post-dose ([3]; subcutaneous injection 174 mg/kg, 174 mg/kg): 27-252 ng/mL and 45-420 nM
- Apparent half-life following subcutaneous administration ([3]; subcutaneous vs intravenous): prolonged
- Toe spread: distance between the first and fifth digits ([4]; axotomized side, n=3, vehicle 11.0±0.58, uninjured side 19.5±0.39): 13.0±0.41 mm
- Functional recovery compared to vehicle-treated controls [4, 10]: earlier functional recovery
- Efficacy upon oral (gavage) administration ([4]; oral gavage, rat sciatic nerve crush): effective
- Days until onset of ability to right the foot and move the toes (onset) ([4]; s.c. V-10,367, n=3, mean ± SEM, vehicle 15.3±0.33): 13.7 ± 0.33 days
- Days until ability to walk on hind feet and toes (walking) ([4]; s.c. V-10,367, n=3, mean ± SEM, vehicle 16.3±0.33): 14 ± 0 days
- Increase of mean axonal areas compared to vehicle ([5]; 18 days after axotomy, subcutaneous injections): 50%
- Increase of mean axonal calibers compared to vehicle [5, 10]: 40%
- Tolerability [6]: well tolerated
- FKBP-12 inhibition [7]: potent FKBP-12 inhibitor

Compound: cyclosporin A
- Nerve regeneration in the rat sciatic nerve following a crush injury ([1]; rat, in vivo): does not increase nerve regeneration
